Some test systems named below: HCT-116 colon; BT-549 breast; 786-0 renal; PC-3 prostate; OVCAR-5 ovarian; UACC-257 melanoma; MDA-N; K-562 leukemia; NCI-H23 lung; SNB-19 CNS; ACHN renal.
Common to all, as to test: NCI-60 cell line screen, 48 h

SMILES strings stand for the structures.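 How tested: cells in 96-well plates exposed to compound for 48 hours at five concentrations. Definition used: TGI = concentration required for complete inhibition of growth.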

As to `Cc1[nH]c(-c2ccccc2)c(-c2ccc(Cl)cc2)c1C(=O)ONC(=O)c1ccccc1`, the TGI amounted to 5.24 µM in the assay on HCT-116 colon; 9.94 µM with BT-549 breast; 4.46 µM in the assay with 786-0 renal; 17.2 µM with PC-3 prostate; 20 µM with OVCAR-5 ovarian; 20.8 µM in the assay with UACC-257 melanoma. In addition, the TGI in the assay with MDA-N came out at 4.45 µM; in the assay with K-562 leukemia it was 16.7 µM; with NCI-H23 lung, 15.3 µM; in the assay on SNB-19 CNS, 19.3 µM; in the assay with ACHN renal it was 3.48 µM.

Turning to `CCOC(=O)C(Cc1ccccc1)(Cc1ccc(O)cn1)NC(=O)c1ccccc1` (stereo unspecified), the TGI was 68.4 µM with HCT-116 colon; 81 µM with BT-549 breast; 82.6 µM with 786-0 renal; 75.1 µM in the assay with PC-3 prostate; over 100 µM in the assay with OVCAR-5 ovarian; 95 µM in the assay on UACC-257 melanoma. Besides, the TGI in the assay on MDA-N is 23 µM; with K-562 leukemia it was over 100 µM; with NCI-H23 lung, over 100 µM; with SNB-19 CNS, over 100 µM; with ACHN renal it was over 100 µM.

For `O=C(c1ccco1)N(C(=S)OCc1ccccn1)c1ccccc1`, the TGI in the assay on HCT-116 colon, in the assay with BT-549 breast, with 786-0 renal, in the assay with PC-3 prostate, with OVCAR-5 ovarian and in the assay on UACC-257 melanoma was over 100 µM throughout. Also, the TGI in the assay on MDA-N, with K-562 leukemia, in the assay with NCI-H23 lung, with SNB-19 CNS and with ACHN renal was over 100 µM each time.

Regarding `NC(CCCCNC(=O)OCc1ccccc1)C(=O)NC(CCCCNC(=O)OCc1ccccc1)C(=O)ON1C(=O)CCC1=O` (stereo unspecified), the TGI in the assay on HCT-116 colon, in the assay with BT-549 breast, with 786-0 renal, with PC-3 prostate, in the assay with OVCAR-5 ovarian and in the assay with UACC-257 melanoma was over 100 µM each time. Further, the TGI with MDA-N, in the assay on K-562 leukemia, in the assay on NCI-H23 lung, in the assay with SNB-19 CNS and with ACHN renal was over 100 µM in each case.

As for `OC1OC(c2ccco2)C(F)(F)C(F)(F)C1(F)F` (stereo unspecified), the TGI in the assay with HCT-116 colon, in the assay on BT-549 breast, in the assay on 786-0 renal, in the assay on PC-3 prostate, in the assay with OVCAR-5 ovarian and with UACC-257 melanoma was over 100 µM in each case. Besides, the TGI with MDA-N, in the assay with K-562 leukemia, with SNB-19 CNS and in the assay with ACHN renal was over 100 µM each time.

Take `CCOC(=O)C1=C(C)NC(=S)NC1c1cccc(O)c1` (stereo unspecified): the TGI is over 100 µM in the assay with HCT-116 colon; over 100 µM in the assay with BT-549 breast; over 100 µM in the assay with 786-0 renal; over 89.6 µM with PC-3 prostate; over 100 µM with OVCAR-5 ovarian; over 100 µM in the assay with UACC-257 melanoma. The TGI in the assay with MDA-N is 39.3 µM; in the assay on K-562 leukemia it was over 100 µM; in the assay with NCI-H23 lung, over 100 µM; with SNB-19 CNS, over 100 µM; in the assay with ACHN renal, over 100 µM.

Turning to `CSc1ncc2c(n1)-c1ccccc1OC2N1CCCC1` (stereo unspecified), the TGI in the assay on HCT-116 colon, with BT-549 breast, in the assay with 786-0 renal, with PC-3 prostate, with OVCAR-5 ovarian and with UACC-257 melanoma was over 100 µM each time. The TGI with MDA-N, in the assay with K-562 leukemia, in the assay with NCI-H23 lung, with SNB-19 CNS and in the assay with ACHN renal was over 100 µM throughout.

`O=C1NC(N/N=C\c2ccccc2)=N/C1=C/c1ccc(Cl)cc1`: the TGI is 71.4 µM with HCT-116 colon; 49.5 µM in the assay with BT-549 breast; over 100 µM in the assay with 786-0 renal; 43.4 µM in the assay with PC-3 prostate; 94.1 µM with OVCAR-5 ovarian; over 100 µM in the assay with UACC-257 melanoma. In addition, the TGI was over 100 µM with MDA-N; over 100 µM in the assay on K-562 leukemia; 39.9 µM in the assay with NCI-H23 lung; 35.9 µM with SNB-19 CNS; 30 µM with ACHN renal.

For `CN(C(=O)c1ccc(Cl)s1)C(=S)N(C)C(=O)c1ccc(Cl)s1`, the TGI in the assay on HCT-116 colon, with BT-549 breast, with 786-0 renal, with PC-3 prostate, in the assay on OVCAR-5 ovarian and in the assay on UACC-257 melanoma was over 10 µM in each case. In addition, the TGI with MDA-N, with K-562 leukemia, in the assay with NCI-H23 lung, in the assay with SNB-19 CNS and with ACHN renal was over 10 µM throughout.

As for `O=C1c2ccccc2CC12Cc1ccc3c(c1C2)CCC3` (stereo unspecified), the TGI with HCT-116 colon is 40.1 µM; in the assay with BT-549 breast, over 100 µM; with 786-0 renal, 51.7 µM; with PC-3 prostate, over 100 µM; in the assay with OVCAR-5 ovarian, 42.2 µM; in the assay with UACC-257 melanoma, 30.2 µM. For the same compound, the TGI in the assay with MDA-N is 44.4 µM; with K-562 leukemia, over 100 µM; in the assay with NCI-H23 lung, over 100 µM; with SNB-19 CNS, over 100 µM; in the assay with ACHN renal, 61 µM.

`CC(C)n1c(=O)n(-c2ccccc2)n(C(C)(C)C)c1=O`: the TGI with HCT-116 colon, with BT-549 breast, in the assay with 786-0 renal, in the assay with PC-3 prostate, in the assay with OVCAR-5 ovarian and in the assay on UACC-257 melanoma was over 100 µM each time. Further, the TGI in the assay with MDA-N, with K-562 leukemia, with NCI-H23 lung, in the assay on SNB-19 CNS and in the assay on ACHN renal was over 100 µM throughout.

`Cc1cc(S(=O)(=O)Nc2nnc3cc(C(F)(F)F)cc(C)n23)c(S)cc1Cl`: the TGI with HCT-116 colon, in the assay with BT-549 breast, with 786-0 renal, with PC-3 prostate, in the assay on OVCAR-5 ovarian and in the assay with UACC-257 melanoma was over 100 µM throughout. Also, the TGI was over 100 µM with MDA-N; over 100 µM with K-562 leukemia; over 100 µM in the assay on NCI-H23 lung; over 86.4 µM with SNB-19 CNS; over 100 µM with ACHN renal.

(Values after PubChem BioAssay (NCI).)
